# T1: BMP2 (Homo sapiens, UniProt P12643)
# T1 sequence (P12643 283-396): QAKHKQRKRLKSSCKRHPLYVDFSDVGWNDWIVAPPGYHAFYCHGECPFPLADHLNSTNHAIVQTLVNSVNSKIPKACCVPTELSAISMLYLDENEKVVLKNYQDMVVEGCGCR
# T2: BMP4 (Homo sapiens, UniProt P12644)
# T2 sequence (P12644 293-408): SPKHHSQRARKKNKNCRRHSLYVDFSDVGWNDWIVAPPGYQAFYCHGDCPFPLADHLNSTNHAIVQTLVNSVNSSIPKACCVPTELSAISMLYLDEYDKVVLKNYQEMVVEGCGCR
# T3: NODAL (Homo sapiens, UniProt Q96S42)
# T3 sequence (Q96S42 238-347): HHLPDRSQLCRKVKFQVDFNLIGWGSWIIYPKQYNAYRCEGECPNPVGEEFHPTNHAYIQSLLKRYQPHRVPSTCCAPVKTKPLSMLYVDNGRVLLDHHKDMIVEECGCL
# How the values were obtained:
# NODAL signaling [1] = assay: Day 4 scRNAseq of iDiscoid after SB431542 application at day 2; type: cell-based, human
# NODAL signaling [2] = assay: NODAL signaling inhibition in iDiscoid culture, immunofluorescence; type: cell-based, human; settings: 10 μM SB431542 beginning at day 2 of iDiscoid culture
# Description: (§1) Signaling Pathway Inhibition. BMP4 signaling was inhibited via application of 3 μM Dorsomorphin into the normal media at day 3 of iDiscoid culture. NODAL signaling was inhibited via application of 10 μM SB431542 beginning at day 2 of iDiscoid culture. CXCR4 signaling was inhibited via application of 1p M AMD3465 beginning at day 0 of iDiscoid culture.
# Staining on glass coverslips. Cells were grown on Matrigel-coated 8 mm diameter circular glass coverslips or on Mattek 35 mm coverslip bottom dishes. Cultures were fixed for 10 minutes in 4% paraformaldehyde (Electron Microscopy Sciences) at room temperature. For toluidine blue staining in FIG. 12B, cells were fixed for 1 hour in 2.5% glutaraldehyde in 0.01M PBS, pH 7.4, at room temperature. Coverslips were then washed three times with PBS followed by 15 minutes permeabilization with 0.2% Triton X-100 in PBS. Subsequently the coverslips were washed three times in washing buffer (0.05% Tween-20 in PBS) for 5 minutes and blocked for 20 minutes in […] wash buffer plus 5% normal donkey serum (Jackson ImmunoResearch Laboratories). The primary antibodies were diluted in 5% normal donkey serum in PBS and incubated with the tissues […] at room temperature followed by three washes in wash buffer for 5 minutes each. The secondary antibodies were diluted in 5% normal donkey serum in PBS and incubated with the tissues 1 hour at room temperature followed by three washes in wash buffer for 5 minutes each. Afterwards, the 8 mm coverslips were mounted on microscopy glass slides using ProLong Glass Antifade (Life Technologies), cured overnight at room temperature and then sealed with nail polish. Coverslips in Mattek dishes were stored in PBS at 4° C. for 3D imaging prior to mounting.
# Image Acquisition and Processing. Images were acquired using the EVOS M700 automated scanning microscope, Leica SP8 confocal microscope, or Nikon A1 Confocal microscope and processed using ImageJ software (NIH). Any contrast adjustments were made in individual channels and applied evenly across the whole image in that channel. Contrast and color balance for color images was applied evenly across the whole image. 3D reconstructions were generated using the Nikon A1 confocal microscope to generate z-stacks spanning ˜100 um deep into the tissues and using ImageJ or Imaris (Bitplane) to construct a 3D volume from the stacks.
# iGATA6 cells = assay: Dox induction of GATA6 gene circuit in iGATA6 hiPSCs; type: cell-based, human; settings: after treatment with Dox
# Description: Generation of iDiscoid. The GATA6-engineered hiPSCs were seeded at a ratio of 4:1 with rtTA expressing hiPSCs either containing or lacking an mKate reporter gene at a total density of 25,000 cells per cm^2 in mTeSR-1 supplemented with […] Y-27632. The next day, the medium was changed to mTeSR-1 with […] doxycycline to induce expression of the GATA6 transgene and replaced daily for up to 5 days.
# Time lapse Imaging. iGATA6 cells were seeded at 25,000 cells per cm^2 in a Cellstar 24-well tissue culture treated plate coated […], then induced with 1,000 ng ml^−1 Dox. After induction, the cells were placed under an Incucyte S3 live cell imaging platform at 37C and 5% CO2. Images were taken every 30 min for 3 days.
# CXCR4 = CXCR4 (Homo sapiens, UniProt P61073); settings: 1p M AMD3465 beginning at day 0 of iDiscoid culture; day 5
# CXCR4, sequence (P61073 whole entry): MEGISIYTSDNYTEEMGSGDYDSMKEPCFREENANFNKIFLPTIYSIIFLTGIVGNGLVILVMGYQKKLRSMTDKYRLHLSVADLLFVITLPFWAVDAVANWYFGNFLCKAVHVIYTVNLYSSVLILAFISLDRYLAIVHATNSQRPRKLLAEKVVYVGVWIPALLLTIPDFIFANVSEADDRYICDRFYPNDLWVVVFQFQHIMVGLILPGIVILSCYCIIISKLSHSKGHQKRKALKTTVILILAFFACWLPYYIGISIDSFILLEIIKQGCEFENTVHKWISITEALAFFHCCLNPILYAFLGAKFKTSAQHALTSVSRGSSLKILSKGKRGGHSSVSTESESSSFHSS
# Description: as §1
# BMP2 = target: T1, BMP2; settings: cited from earlier work
# BMP4 = target: T2, BMP4; settings: cited from earlier work
# NODAL = target: T3, NODAL; settings: cited from earlier work
# [3] = day 4, SB431542 applied at day 2
molecule,measurement,setting,value
NC(=O)c1ccc(-c2nc(-c3ccc4c(c3)OCO4)c(-c3ccccn3)[nH]2)cc1 [SB431542],system state after addition to the culture media,NODAL signaling [1]; SB431542 added to the media,acquire and maintain a state similar to early human and primate amnion
same,NANOG expression within the WT (scRNAseq),NODAL signaling [1]; [3],lost
same,pluripotency markers SOX2 and OCT4 within the WT (scRNAseq),NODAL signaling [1]; [3],retained
same,expression of the amnion marker ISL1 (scRNAseq),"NODAL signaling [1]; day 4, SB431542 applied at day 2, alongside CDX2, GATA3, AP-2γ",present in cluster 2
same,ISL1-expressing cells within iDiscoids / ISL1 expression,NODAL signaling [2],lost
same,cavity formation / cavity morphology,NODAL signaling [2],maintained
same,expression of NANOG within the WT clusters,NODAL signaling [2],lost
same,ISL1-expressing cells within iDiscoids / ISL1 expression,NODAL signaling [2]; listed as SB431542,substantial elimination
same,cavity formation / cavity morphology,NODAL signaling [2]; listed as SB431542,preserved
same,expression of NANOG within the WT clusters,NODAL signaling [2]; listed as SB431562,substantially decreased
"C[C@H]1c2cccc(O)c2C(=O)C2=C(O)[C@]3(O)C(=O)C(C(N)=O)=C(O)[C@@H](N(C)C)[C@@H]3[C@@H](O)[C@@H]21 [Dox, Doxycycline]",EGFP expression in iGATA6 cells,iGATA6 cells,upregulate
same,pluripotency marker NANOG in iGATA6 cells,iGATA6 cells,loss
c1ccc(CNCc2ccc(CN3CCCNCCNCCCNCC3)cc2)nc1 [AMD3465],upward migration and contiguous iGATA6 membrane formation,CXCR4,substantially inhibits
"human CER1: human Cerberus ortholog, cerberus 1 (CER1) polypeptide (protein, UniProt O95813 18-267, looked up) Cerberus: TRHQDGRQNQSSLSPVLLPRNQRELPTGNHEEAEEKPDLFVAVPHLVATSPAGEGQRQREKMLSRFGRFWKKPEREMHPSRDSDSEPFPPGTQSLIQPIDGMKMEKSPLREEAKKFWHHFMFRKTPASQGVILPIKSHEVHWETCRTVPFSQTITHEGCEKVVVQNNLCFGKCGSVHFPGAAQHSHTSCSHCLPAKFTTMHLPLNCTELSSVIKVVMLVEECQCKVKTEHEDGHILHAGSQDSFIPGVSA",affinity for BMP2,BMP2,minimal affinity
same,affinity for BMP4,BMP4,minimal affinity
same,affinity for NODAL,NODAL,high affinity

# — patent US20250340847A1, “CELL CULTURE SYSTEM, USES THEREOF AND CELLS DERIVED THEREFROM” (UNIVERSITY OF PITTSBURGH-OF THE COMMONWEALTH SYSTEM OF …, priority 2022, published 2025)
